Patent US20220348981A1, “ASSAY OF ARYLSULFATASE A ENZYMATIC ACTIVITY IN DRIED BLOOD SPOTS BY MASS SPECTROMETRY AND FLUOROMETRY” (University of Washington, priority 2019, published 2022)

What was measured:
arylsulfatase A (ARSA) [1] = biological target: T1, arylsulfatase A (ARSA) (Homo sapiens, UniProt P15289); assay: ARSA leukocyte assay by LC-MS/MS with deuterated sulfatide substrate; format: biochemical; details: for effect on ARSA activity: additive in assay buffer, increasing amount (Ce(acetate)3 0 to 20 mM)
T1 construct: the assay is able to detect ARSA enzymatic activity in lysates of mixed leukocytes (mainly lymphocytes) by LC-MS/MS; endogenous in cells; host or cells: mixed leukocytes (mainly lymphocytes) prepared from K2EDTA venous blood; lysate, 2 µg protein per assay
T1 sequence (P15289 19-507): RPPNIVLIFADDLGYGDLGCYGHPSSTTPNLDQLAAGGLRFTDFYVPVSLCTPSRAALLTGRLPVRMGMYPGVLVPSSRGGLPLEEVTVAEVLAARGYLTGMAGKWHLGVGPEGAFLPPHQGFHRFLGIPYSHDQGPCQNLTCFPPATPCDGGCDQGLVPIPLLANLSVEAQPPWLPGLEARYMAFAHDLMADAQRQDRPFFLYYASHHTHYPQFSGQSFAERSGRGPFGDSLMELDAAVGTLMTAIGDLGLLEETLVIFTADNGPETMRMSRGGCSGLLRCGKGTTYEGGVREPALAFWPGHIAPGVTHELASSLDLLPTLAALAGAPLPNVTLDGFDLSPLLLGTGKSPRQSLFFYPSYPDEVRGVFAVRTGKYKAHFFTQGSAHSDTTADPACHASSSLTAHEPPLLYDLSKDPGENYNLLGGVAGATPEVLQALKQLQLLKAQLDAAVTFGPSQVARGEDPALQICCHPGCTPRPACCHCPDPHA
Method: Development of a new ARSA leukocyte assay. Recently, Han et al. reported the detection of ARSA enzymatic activity where a natural substrate, C18:0-sulfatide, was incubated with leukocyte lysate in buffer containing sodium taurodeoxycholate as detergent (Han, M.; Jun, S. H.; Song, S. H.; Park, H. D.; Park, K. U.; Song, J., Ultra-performance liquid chromatography-tandem mass spectrometry measurement of leukocyte arylsulfatase A activity using a natural substrate. Ann Lab Med 2015, 35 (1), 165-8). As described herein, in the present assay, the deuterium labeled sulfatide d3-C18:0-sulfatide was used as substrate so that the enzymatic product (d3-C18:0-galactosyl-ceramide) also carried the three deuterium labels, and could be selectively quantified without being interfered by the endogenous galactosyl-ceramide. Using this approach, the assay is able to detect ARSA enzymatic activity in lysates of mixed leukocytes (mainly lymphocytes) by LC-MS/MS. […] If leukocyte lysate was omitted, no discernable product peak was observed above the baseline noise (data not shown). […] Because detergent was present in the assay buffer, MLD patients that are due to dysfunctional Saposin B protein will not be detected with this assay, but these variants are very rare among MLD patients (less than 5%). In the Han et al. report, MnCl2 was added to the buffer at a concentration of 33 mM. […] Barium or cerium […] are often used to assay sulfatases in complex matrices to sequester inorganic sulfate and phosphate ions, which are potent inhibitors of sulfatases. […] The ARSA activity was pH dependent with an optimal pH at 4.5. […] The pH optimum of ARSA and the KM value found agreed with the previous reports. […]
Enzymatic activity calculation. ARSA activity in leukocyte (nmol/h/mg protein) was calculated by multiplying the ion ratio of ARSA product to ARSA internal standard (blank subtracted) by the nanomoles of internal standard added to the assay, then dividing by the incubation time (h) and the amount of leukocyte protein used (mg). […]

arylsulfatase A (ARSA) [2] = biological target: T1, arylsulfatase A (ARSA); assay: ARSA assay with a 3 mm DBS punch, no purification; format: biochemical; details: 5 mM added to the assay buffer; data not shown
Method: Application of ARSA assay to DBS extracts purified by immune-precipitation. Initial attempts to detect ARSA enzymatic activity in DBS were unsuccessful. When the leukocyte lysate was substituted with a 3 mm DBS punch in the ARSA assay, no ARSA activity could be detected. Moreover, no ARSA activity was observed when leukocyte lysate was co-incubated with a DBS punch, whereas activity was seen when the leukocyte was incubated with a filter paper punch lacking blood matrix (data not shown). This indicated the presence of some ARSA inhibitor(s) in whole blood.

Compound: CC(=O)[O-].CC(=O)[O-].CC(=O)[O-].[Ce+3] [Ce(acetate)3]
- effect on ARSA activity (arylsulfatase A (ARSA) [1]): decrease
- rescue of ARSA activity in DBS (arylsulfatase A (ARSA) [2]): did not rescue ARSA activity

Compound: [Cl][Mn][Cl] [MnCl2]
- effect on ARSA activity (arylsulfatase A (ARSA) [1]): decrease with increasing amount

Compound: CC(=O)[O-].CC(=O)[O-].[Pd+2] [Pd(Acetate)2]
- rescue of ARSA activity in DBS (arylsulfatase A (ARSA) [2]): did not rescue ARSA activity

Compound: d3-C18:0-sulfatide
- Km (arylsulfatase A (ARSA) [1]; leukocyte lysate, substrate concentration varied, hyperbolic kinetics, pH 4.5): 83 µM
